Laboratory results as given in patent publication US20060282906A1, “Non-transgenic rodent model of Alzheimer's disease” (priority 2005, published 2006).

Experiments:
Male Wistar rats [1] = assay: Montoya staircase test; format: in vivo, rat; details: mean±SEM
Procedure: (§1) Male Wistar rats (250 to 300 grams; Charles River, Montreal, Quebec) were divided into 4 groups: intracerebroventricular injections of Aβ(25-35) (BACHEM, Torrance, Calif.); endothelin injections into the right striatum; both Aβ(25-35) and striatal endothelin injections; and sham procedures. The Aβ(25-35) fragment was used to reduce the possibility of rapid coagulation and to allow diffusion of the peptide into the brain.
(§2) All rats were anesthetized using 40 mg/kg of pentobarbital (Somnotol; MTC Pharmaceuticals, Cambridge, Ontario) intraperitoneally. Body temperature was maintained at 37° C. Aβ(25-35) (50 nmol in 10 μL of saline) was injected bilaterally into the lateral ventricles. Aβ(25-35) was prepared according to established methods (Sigurdsson, et al. (1997) supra). Aβ(25-35) (50 nmol in 10 μL of saline at a rate of 1 μL/minute) was injected bilaterally into the lateral ventricles via a stainless-steel cannula (23-gauge; anterior/posterior −0.8, medial/lateral ±1.4, and dorsal/ventral −4.0 below dura). Two endothelin injections (6 pmol in 3 μL of saline), 1 mm apart, were made into the right striatum (Sigurdsson, et al. (1997) supra). Sham procedures involved all the surgical steps without injections of Aβ(25-35) or endothelin. After wound suture, all rats received […] of buprenorphine intramuscularly and were allowed to recover from surgery for 7 days.
For training (n=10 for each group), rats were placed into the Montoya staircase apparatus (Montoya, et al. (1991) supra) at the same time every day for 8 days (days −8 through −1) and were allowed to perform the test for 20 minutes. Rats were food-deprived for 1 day (day −9) before testing, as well as on day −8. On days −7 though −1, rats were fed 10 grams of their normal chow so that they maintained their body weight at ˜85%. Three NOYES LAB ANIMAL PRECISION FOOD PELLETS™ (Research Diets, Inc., New Brunswick, N.J.) were placed in each of the 14 wells (7 on each side). Pellets eaten were recorded from each well. Re-testing trials, which were performed 7 days after the surgical procedures (day 0), were performed for 8 days in the same way as the training trials (days 8 through 15).
Digital photographs were taken using a light microscope (Leitz Diaplan). An investigator was blinded to the identification of the rat sections while analysis was being performed. […] Also, relative optical density measurements and numbers of stained cells or accumulations were measured in entire brain areas for quantitative analysis and statistically analyzed with ANOVA and Tukey post hoc test with a significance level of P<0.05. […] The staircase data are expressed as the mean±SEM. […] Data are expressed as mean±SEM. […]

Male Wistar rats [2] = assay: Congo Red histochemistry of rat brain sections; format: in vivo; details: Aβ: lesions in fornix, anterior hippocampus, CA1 hippocampus; endothelin: infarct
Procedure: as §1
as §2, with “days. […]” for “days.”

Male Wistar rats [3] = assay: Quantitative immunohistochemistry: relative optical density and numbers of stained cells or accumulations; format: in vivo, rat; details: for APP Accumulation / GFAP Intensity / OX6 Intensity: vehicle (not in brackets), mean ± SEM, n = 4
Procedure: (§3) All rats were anesthetized using 40 mg/kg of pentobarbital (Somnotol; MTC Pharmaceuticals, Cambridge, Ontario) intraperitoneally. Body temperature was maintained at 37° C. Aβ(25-35) (50 nmol in 10 μL of saline) was injected bilaterally into the lateral ventricles. Aβ(25-35) was prepared according to established methods (Sigurdsson, et al. (1997) supra). Aβ(25-35) (50 nmol in 10 μL of saline at a rate of 1 μL/minute) was injected bilaterally into the lateral ventricles via a stainless-steel cannula (23-gauge; anterior/posterior −0.8, medial/lateral ±1.4, and dorsal/ventral −4.0 below dura). Two endothelin injections (6 pmol in 3 μL of saline), 1 mm apart, were made into the right striatum (Sigurdsson, et al. (1997) supra). Sham procedures involved all the surgical steps without injections of Aβ(25-35) or endothelin. After wound suture, all rats received 40 mg/kg of buprenorphine intramuscularly and were allowed to recover from surgery for 7 days.
(§4) Twenty-one days after surgery, all animals were euthanized via pentobarbital overdose and perfused transaortically first with saline followed by 4% formaldehyde (pH 7.4). The brains were removed and cryoprotected in 30% sucrose for 36 hours at 4° C. Coronal sections (30 pm) were cut using a cryostat.
(§5) Free-floating sections from rat brains (n=5 for each group) were treated with 0.03% hydrogen peroxide and blocked with 3 mL of horse or rabbit serum (VECTASTAIN® Elite, Vector Laboratories, Burlingame, Calif.). The following primary antibodies were diluted in filtered phosphate-buffered saline: APPa4 mouse monoclonal (Chemicon International Inc, Temecula, Calif.; 1:1000), GFAP mouse monoclonal (Sigma-Aldrich, St Louis, Mo.; 1:1000), OX-6 mouse monoclonal (Serotec, Inc., Raleigh, N.C.; 1:1000), Tau-2 mouse monoclonal (Sigma-Aldrich, St Louis, Mo.; 1:10000), NFκB(p65) goat polyclonal (Santa Cruz Biotechnologies, Santa Cruz, Calif.; 1:1000), IL-1β goat polyclonal (Santa Cruz Biotechnologies, Santa Cruz, Calif.; 1:1000), and TNF-α-M18 goat polyclonal (Santa Cruz Biotechnologies, Santa Cruz, Calif.; 1:1000). APP-, Tau-2-, GFAP-, and OX-6-stained sections were incubated with 3 mL of horse biotinylated anti-mouse secondary antibody and horse serum. NFκB(p65), IL-1β, and TNF-α-stained sections were incubated with 3 mL of biotinylated rabbit anti-goat secondary antibody and rabbit serum. Sections were then incubated in 3 mL of avidin-biotin complex followed by 0.05% diaminobenzidine. Sections were washed, air-dried, cleared in xylene, and cover-slipped. Brains to be compared were processed at the same time using the same solutions to reduce variability in immunostaining caused by separate processing.
(§6) Digital photographs were taken using a light microscope (Leitz Diaplan). An investigator was blinded to the identification of the rat sections while analysis was being performed. All immunohistochemical data that were compared was processed at the same time to reduce any variation caused by differences of intensity. A grading scale was based on both observable size and intensity of staining (n=5 for each group). Also, relative optical density measurements and numbers of stained cells or accumulations were measured in entire brain areas for quantitative analysis and statistically analyzed with ANOVA and Tukey post hoc test with a significance level of P<0.05.

Male Wistar rats [4] = assay: Immunohistochemistry of rat brain sections, grading scale of staining size and intensity; format: in vivo; set-up: key to NKκB(p65) immunostaining signal / COX-2 immunostaining signal / GFAP immunostaining signal / OX-6 immunostaining signal / APP immunostaining signal / Tau-2 immunostaining signal / TNFα immunostaining signal / Cas-3 immunostaining signal: n.s.: no positive staining; +: moderate immunostaining signal; ++: strong immunostaining signal; +++: strongest immunostaining signal
Procedure: as §3, §4, §5, §6

CC[C@H](C)[C@H](NC(=O)[C@H](CC(=O)O)NC(=O)[C@H](CC(C)C)NC(=O)[C@H](Cc1c[nH]cn1)NC(=O)[C@@H]1CSSC[C@H](N)C(=O)N[C@@H](CO)C(=O)N[C@H]2CSSC[C@H](NC(=O)[C@H](CCC(=O)O)NC(=O)[C@H](CCCCN)NC(=O)[C@H](CC(=O)O)NC(=O)[C@H](CCSC)NC(=O)[C@H](CC(C)C)NC(=O)[C@H](CO)NC(=O)[C@H](CO)NC2=O)C(=O)N[C@@H](C(C)C)C(=O)N[C@@H](Cc2ccc(O)cc2)C(=O)N[C@@H](Cc2ccccc2)C(=O)N1)C(=O)N[C@H](C(=O)N[C@@H](Cc1c[nH]c2ccccc12)C(=O)O)[C@@H](C)CC [Endothelin]
Staircase test performance, contralateral paw (Male Wistar rats [1]; day 8 (first day of re-testing)): 66±15 % of pretreatment
Staircase test performance, ipsilateral paw (Male Wistar rats [1]; during the post-treatment phase): 143±18 % of pretreatment
Congo Red staining (Male Wistar rats [2]): stained positively for Congo Red
average numbers of OX-6-stained microglia (Male Wistar rats [3]; CA1 of the hippocampus): 4.8±0.9
Average intensity measurements for GFAP (Male Wistar rats [3]; Hippocampus): 152.9±11.0
APP Accumulation (Male Wistar rats [3]; Left Cortex): 7.4 ± 1.4
GFAP Intensity (Male Wistar rats [3]; Left Hippocampus): 152.1 ± 4.1
OX6 Intensity (Male Wistar rats [3]; Left Hippocampus): 104.2 ± 3.5
APP Accumulation (Male Wistar rats [3]; Right Cortex): 13.8 ± 1.9
GFAP Intensity (Male Wistar rats [3]; Right Hippocampus): 166.0 ± 3.8
OX6 Intensity (Male Wistar rats [3]; Right Hippocampus): 116.2 ± 2.9
APP immunostaining signal (Male Wistar rats [4]; Corpus Callosum): n.s.
COX-2 immunostaining signal (Male Wistar rats [4]; Corpus Callosum): n.s.
GFAP immunostaining signal (Male Wistar rats [4]; Corpus Callosum): +
NKκB(p65) immunostaining signal (Male Wistar rats [4]; Corpus Callosum): n.s.
OX-6 immunostaining signal (Male Wistar rats [4]; Corpus Callosum): n.s.
TNFα immunostaining signal (Male Wistar rats [4]; Corpus Callosum): n.s.
Tau-2 immunostaining signal (Male Wistar rats [4]; Corpus Callosum): n.s.
APP immunostaining signal (Male Wistar rats [4]; Cortex): n.s.
COX-2 immunostaining signal (Male Wistar rats [4]; Cortex): n.s.
GFAP immunostaining signal (Male Wistar rats [4]; Cortex): +
NKκB(p65) immunostaining signal (Male Wistar rats [4]; Cortex): n.s.
OX-6 immunostaining signal (Male Wistar rats [4]; Cortex): n.s.
TNFα immunostaining signal (Male Wistar rats [4]; Cortex): n.s.
Tau-2 immunostaining signal (Male Wistar rats [4]; Cortex): n.s.
APP immunostaining signal (Male Wistar rats [4]; Hippocampus): n.s.
COX-2 immunostaining signal (Male Wistar rats [4]; Hippocampus): n.s.
GFAP immunostaining signal (Male Wistar rats [4]; Hippocampus): +
NKκB(p65) immunostaining signal (Male Wistar rats [4]; Hippocampus): n.s.
OX-6 immunostaining signal (Male Wistar rats [4]; Hippocampus): n.s.
Tau-2 immunostaining signal (Male Wistar rats [4]; Hippocampus): n.s.
APP immunostaining signal (Male Wistar rats [4]; Hypothalamus): n.s.
NKκB(p65) immunostaining signal (Male Wistar rats [4]; Hypothalamus): n.s.
TNFα immunostaining signal (Male Wistar rats [4]; Hypothalamus): n.s.
APP immunostaining signal (Male Wistar rats [4]; Striatum (right)): +
COX-2 immunostaining signal (Male Wistar rats [4]; Striatum (right)): +
Cas-3 immunostaining signal (Male Wistar rats [4]; Striatum (right)): +
GFAP immunostaining signal (Male Wistar rats [4]; Striatum (right)): ++
NKκB(p65) immunostaining signal (Male Wistar rats [4]; Striatum (right)): +
OX-6 immunostaining signal (Male Wistar rats [4]; Striatum (right)): ++
TNFα immunostaining signal (Male Wistar rats [4]; Striatum (right)): +
OX-6 immunostaining signal (Male Wistar rats [4]; Thalamus (right)): +
TNFα immunostaining signal (Male Wistar rats [4]; Thalamus (right)): +
Tau-2 immunostaining (Male Wistar rats [4]; region of ischemic damage (right striatum)): Increases
IL-1β immunostaining (Male Wistar rats [4]; region of the infarct, punctate appearance): Increases
